Test results published in patent US9056874B2, “Complement pathway modulators and uses thereof” (NOVARTIS AG, priority 2012, dated 2015).

Biological target: factor B (Homo sapiens, UniProt P00751)
Assay: factor B inhibition assay of Biological Example 1
Format: biochemical
Parameters: CVF-Bb complex prepared from purified cobra venom factor (1 μM), recombinant human complement factor B; made in house; host or cells: drosophila cells (factor B); E. coli (factor D used to form the complex)
Settings: IC50 (nM), assay of Biological Example 1 (Table 1)

Sequence of factor B (P00751 260-764 limits assumed): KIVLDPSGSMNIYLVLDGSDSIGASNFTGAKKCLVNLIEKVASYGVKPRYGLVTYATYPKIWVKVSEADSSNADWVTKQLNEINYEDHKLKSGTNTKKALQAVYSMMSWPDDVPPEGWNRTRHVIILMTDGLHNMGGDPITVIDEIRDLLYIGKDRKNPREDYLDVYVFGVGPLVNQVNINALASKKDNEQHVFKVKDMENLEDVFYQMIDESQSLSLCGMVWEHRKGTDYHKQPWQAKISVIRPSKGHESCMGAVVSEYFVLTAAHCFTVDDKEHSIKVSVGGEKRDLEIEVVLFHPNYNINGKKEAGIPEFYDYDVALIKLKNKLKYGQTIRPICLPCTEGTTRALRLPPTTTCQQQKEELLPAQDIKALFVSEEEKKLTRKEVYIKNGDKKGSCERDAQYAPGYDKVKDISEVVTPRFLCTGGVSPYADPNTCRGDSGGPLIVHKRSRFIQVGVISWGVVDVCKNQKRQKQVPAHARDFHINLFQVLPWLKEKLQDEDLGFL
Sequence of factor B (Q91132 23-649 partner limits assumed): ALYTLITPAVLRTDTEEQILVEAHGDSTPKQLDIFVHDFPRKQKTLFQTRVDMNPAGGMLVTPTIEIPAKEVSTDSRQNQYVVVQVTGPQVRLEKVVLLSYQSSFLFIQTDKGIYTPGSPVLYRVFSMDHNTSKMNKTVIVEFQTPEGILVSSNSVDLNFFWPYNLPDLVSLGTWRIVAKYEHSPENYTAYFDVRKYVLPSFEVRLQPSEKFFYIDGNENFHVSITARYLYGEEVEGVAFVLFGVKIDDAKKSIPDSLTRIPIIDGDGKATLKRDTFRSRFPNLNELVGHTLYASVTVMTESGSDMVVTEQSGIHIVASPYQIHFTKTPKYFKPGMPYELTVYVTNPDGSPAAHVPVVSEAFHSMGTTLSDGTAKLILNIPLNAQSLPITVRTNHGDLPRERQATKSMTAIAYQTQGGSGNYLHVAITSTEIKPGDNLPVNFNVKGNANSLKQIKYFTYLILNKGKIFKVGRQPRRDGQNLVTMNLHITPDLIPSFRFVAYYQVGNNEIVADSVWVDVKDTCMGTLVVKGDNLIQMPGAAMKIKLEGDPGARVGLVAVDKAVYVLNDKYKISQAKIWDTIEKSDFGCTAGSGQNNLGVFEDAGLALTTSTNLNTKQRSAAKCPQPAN
Sequence of factor B (Q91132 733-984 partner limits assumed): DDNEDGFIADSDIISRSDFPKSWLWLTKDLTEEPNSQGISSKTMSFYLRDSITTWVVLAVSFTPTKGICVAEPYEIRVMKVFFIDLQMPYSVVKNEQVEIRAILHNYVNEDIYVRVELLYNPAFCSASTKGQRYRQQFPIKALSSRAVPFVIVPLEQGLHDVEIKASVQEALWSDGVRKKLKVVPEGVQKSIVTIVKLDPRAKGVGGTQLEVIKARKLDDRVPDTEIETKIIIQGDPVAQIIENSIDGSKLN
Sequence of factor B (Q91132 1264-1642 partner limits assumed): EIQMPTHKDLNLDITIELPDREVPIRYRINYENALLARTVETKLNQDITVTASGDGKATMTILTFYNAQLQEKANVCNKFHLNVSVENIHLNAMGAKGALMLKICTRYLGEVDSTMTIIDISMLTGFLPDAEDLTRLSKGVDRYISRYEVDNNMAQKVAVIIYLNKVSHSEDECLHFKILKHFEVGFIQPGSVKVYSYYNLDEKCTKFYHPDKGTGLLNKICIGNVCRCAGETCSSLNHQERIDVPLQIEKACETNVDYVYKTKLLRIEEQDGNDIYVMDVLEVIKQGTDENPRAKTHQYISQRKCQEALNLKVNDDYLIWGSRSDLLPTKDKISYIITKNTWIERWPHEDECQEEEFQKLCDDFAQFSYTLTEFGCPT

First: Cc1cc(C)c2[nH]cc3c2c1C(O)(c1nc2cc(C#N)ccc2[nH]1)CC3 (single isomer, unassigned) [93-F b) (tr = 10.2 min), (−) or (+)-2-(5-hydroxy-6,8-dimethyl-1,3,4,5-tetrahydrobenzo[cd]indol-5-yl)-1H-benzo[d]imidazole-5-carbonitrile]
Second: Cc1cc(C)c2[nH]cc(-c3cnn(C)c3)c2c1C(O)c1nc2cc(C#N)ccc2[nH]1 (single isomer, unassigned) [119 b) (tr = 2.35 min), (−) or (+)-2-((5,7-dimethyl-3-(1-methyl-1H-pyrazol-4-yl)-1H-indol-4-yl)(hydroxy)methyl)-1H-benzo[d]imidazole-5-carbonitrile]
The IC50 of the first is 13-fold lower: 950 nM for the first, 12600 nM for the second. The first is the more potent here.

Compared with `CCc1cc(C)c2[nH]ccc2c1C(OC)(c1nc2cc(C#N)ccc2[nH]1)C(F)(F)F` (single isomer, unassigned; (-)) [84-D b) (−), (−)-2-(1-(5-ethyl-7-methyl-1H-indol-4-yl)-2,2,2-trifluoro-1-methoxyethyl)-1H-benzo[d]imidazole-5-carbonitrile], `CCc1cc(C)c2[nH]ccc2c1C(N)(c1nc2cc(C#N)ccc2[nH]1)C(F)(F)F` (single isomer, unassigned; (+)) [107-C b) (+)] is 50-fold higher in IC50: 8 nM for the first, 400 nM for the second.

First: Cc1cc(OCC(=O)O)c(C(C)(O)c2nc3cc(C#N)ccc3[nH]2)c2cc[nH]c12 (racemic) [Example 32-B, (±)-2-((4-(1-(5-Cyano-1H-benzo[d]imidazol-2-yl)-1-hydroxyethyl)-7-methyl-1H-indol-5-yl)oxy)acetic acid]
Second: Cc1cc(Br)c(C(C)(O)c2nc3cc(C#N)ccc3[nH]2)c2cc[nH]c12 (single isomer, unassigned) [79-F b) (tr = 2.2 min), (+) or (−)-2-(1-(5-bromo-7-methyl-1H-indol-4-yl)-1-hydroxyethyl)-1H-benzo[d]imidazole-5-carbonitrile]
The IC50 of the first is 24-fold higher: 1410 nM for the first, 60 nM for the second.

Compared with `COCC(C)Oc1cc(C)c2[nH]ccc2c1Cc1nc2cc(C#N)ccc2[nH]1` (racemic) [Example 23, (±)-2-((5-((1-Methoxypropan-2-yl)oxy)-7-methyl-1H-indol-4-yl)methyl)-1H-benzo[d]imidazole-5-carbonitrile], `Cc1cc(OC(C)C)c(Cc2nc3cc(C#N)ccc3[nH]2)c2cc[nH]c12` [Example 20-E] is 4-fold lower in IC50: 2650 nM for the first, 670 nM for the second. The second is the more potent here.

Compared with `Cc1cc2c(c3cc[nH]c13)C(c1nc3cc(C#N)ccc3[nH]1)(C(F)(F)F)OC2=O` (racemic) [Example 81-D, (±)-2-(5-Methyl-3-oxo-1-(trifluoromethyl)-3,6-dihydro-1H-furo[3,4-e]indol-1-yl)-1H-benzo[d]imidazole-5-carbonitrile], `CCc1cc(C)c2[nH]ccc2c1C(OC)(c1nc2cc(C#N)ccc2[nH]1)C(F)(F)F` (single isomer, unassigned; (+)) [84-D b) (+), (+)-2-(1-(5-ethyl-7-methyl-1H-indol-4-yl)-2,2,2-trifluoro-1-methoxyethyl)-1H-benzo[d]imidazole-5-carbonitrile] is 6.4-fold lower in IC50: 2930 nM for the first, 460 nM for the second.

First: COc1cc(C)c2[nH]ccc2c1C(N)(c1nc2cc(C#N)ccc2o1)C(F)(F)F (racemic) [Example 130-B, (±)-2-(1-Amino-2,2,2-trifluoro-1-(5-methoxy-7-methyl-1H-indol-4-yl)ethyl)benzo[d]oxazole-5-carbonitrile]
Second: COc1cc(C)c2[nH]ccc2c1C(OCC(=O)O)(c1nc2cc(C#N)ccc2o1)C(F)(F)F (racemic) [Example 129-B, (±)-2-(1-(5-cyanobenzo[d]oxazol-2-yl)-2,2,2-trifluoro-1-(5-methoxy-7-methyl-1H-indol-4-yl)ethoxy)acetic acid]
The IC50 of the first is 390-fold lower: 20 nM for the first, 7860 nM for the second. The first is the more potent here.

First: CCc1cc(C)c2[nH]ccc2c1Cc1nc2cc(C#N)ccc2[nH]1 [Example 63-A]
Second: Cc1cc(CN)c(Cc2nc3cc(C#N)ccc3[nH]2)c2cc[nH]c12 [Example 60-B, 2-((5-(Aminomethyl)-7-methyl-1H-indol-4-yl)methyl)-1H-benzo[d]imidazole-5-carbonitrile]
The IC50 of the first is 36-fold lower: 160 nM for the first, 5780 nM for the second.

Compared with `CNC(c1nc2cc(C#N)ccc2[nH]1)(c1c(S(C)(=O)=O)cc(C)c2[nH]ccc12)C(F)(F)F` (single isomer, unassigned; (+)) [16-B b) (+), (+)-2-(2,2,2-trifluoro-1-(7-methyl-5-(methylsulfonyl)-1H-indol-4-yl)-1-(methylamino)ethyl)-1H-benzo[d]imidazole-5-carbonitrile], `Cc1cc(S(C)(=O)=O)c(C(O)(c2nc3cc(C#N)ccc3[nH]2)C(F)(F)F)c2cc[nH]c12` (single isomer, unassigned; (-)) [14-D b) (−), (−)-2-(2,2,2-trifluoro-1-hydroxy-1-(7-methyl-5-(methylsulfonyl)-1H-indol-4-yl)ethyl)-1H-benzo[d]imidazole-5-carbonitrile] is 18-fold lower in IC50: 4740 nM for the first, 270 nM for the second. The second is the more potent here.

`Cc1cc(C)c2[nH]ccc2c1C(O)c1nc2cc(C#N)ccc2[nH]1` (single isomer, unassigned; (+)) [64-C b) (+), (+)-2-((5,7-dimethyl-1H-indol-4-yl)(hydroxy)methyl)benzo[d]imidazole-5-carbonitrile] and `Cc1cc(OC(F)F)c(C(O)c2nc3cc(C#N)ccc3[nH]2)c2cc[nH]c12` (single isomer, unassigned; (-)) [3-B b) (−), (−)-2-((5-(difluoromethoxy)-7-methyl-1H-indol-4-yl)(hydroxy)methyl)-1H-benzo[d]imidazole-5-carbonitrile] are within 1.5-fold of each other in IC50: 340 nM for the first, 250 nM for the second.

`Cc1cc(S(C)(=O)=O)c(C(C)(N)c2nc3cc(C#N)ccc3[nH]2)c2cc[nH]c12` (single isomer, unassigned; (-)) [13-E b) (−), (−)-2-(1-Amino-1-(7-methyl-5-(methylsulfonyl)-1H-indol-4-yl)ethyl)-1H-benzo[d]imidazole-5-carbonitrile] and `Cc1cc(S(C)(=O)=O)c(C(C)(O)c2nc3cc(C#N)ccc3[nH]2)c2cc[nH]c12` (single isomer, unassigned) [11-C b) (tr = 4.2 min), (−) or (+)-2-(1-hydroxy-1-(7-methyl-5-(methylsulfonyl)-1H-indol-4-yl)ethyl)-1H-benzo[d]imidazole-5-carbonitrile] are within 1.5-fold of each other in IC50: 1410 nM for the first, 1020 nM for the second.

`COc1cc(C)c2[nH]cc(Cl)c2c1C(O)c1nc2cc(C#N)ccc2[nH]1` (single isomer, unassigned; (-)) [28-C b) (−), (−)-2-((3-chloro-5-methoxy-7-methyl-1H-indol-4-yl)(hydroxy)methyl)-1H-benzo[d]imidazole-5-carbonitrile] and `COc1cc(C)c2[nH]ccc2c1C(OC)c1nc2cc(C#N)ccc2[nH]1` (racemic) [30-B b) (−), (−)-2-(methoxy(5-methoxy-7-methyl-1H-indol-4-yl)methyl)-1H-benzo[d]imidazole-5-carbonitrile] are within 1.5-fold of each other in IC50: 140 nM for the first, 160 nM for the second.

Compared with `COc1cc(C)c2[nH]ccc2c1C(O)(c1nc2cc(C#N)ccc2[nH]1)C(F)(F)F` (single isomer, unassigned; (-)) [33-B b) (−), (−)-2-(2,2,2-trifluoro-1-hydroxy-1-(5-methoxy-7-methyl-1H-indol-4-yl)ethyl)-1H-benzo[d]imidazole-5-carbonitrile], `Cc1cc(OC(C)C)c(C(O)(c2nc3cc(C#N)ccc3[nH]2)C(F)(F)F)c2cc[nH]c12` (stereo not drawn) [Example 33-D] is 6.2-fold higher in IC50: 50 nM for the first, 310 nM for the second.

Going from `CCc1cc(C)c2[nH]ccc2c1C(NC)(c1nc2cc(C#N)ccc2[nH]1)C(F)(F)F` (single isomer, unassigned; (-)) [107-B b) (−), (−)-2-(1-(5-ethyl-7-methyl-1H-indol-4-yl)-2,2,2-trifluoro-1-(methylamino)ethyl)-1H-benzo[d]imidazole-5-carbonitrile] to `Cc1cc(C(F)(F)F)c(C(C)(O)c2nc3cc(C#N)ccc3[nH]2)c2cc[nH]c12` (racemic) [Example 83-B, (±)-2-(1-hydroxy-1-(7-methyl-5-(trifluoromethyl)-1H-indol-4-yl)ethyl)-1H-benzo[d]imidazole-5-carbonitrile], the IC50 rises from 3 nM to 1440 nM (480-fold). The first is the more potent here.

Going from `COc1cc(C)c2[nH]ccc2c1C(OCC(=O)O)(c1nc2cc(C#N)ccc2[nH]1)C(F)(F)F` (single isomer, unassigned; (+)) [35-C (+), (+)-2-(1-(5-cyano-1H-benzo[d]imidazol-2-yl)-2,2,2-trifluoro-1-(5-methoxy-7-methyl-1H-indol-4-yl)ethoxy)acetic acid] to `COC(c1nc2cc(C#N)ccc2[nH]1)(c1c(S(C)(=O)=O)cc(C)c2[nH]ccc12)C(F)(F)F` (single isomer, unassigned; (-)) [15-D b) (−), (−)-2-(2,2,2-trifluoro-1-methoxy-1-(7-methyl-5-(methylsulfonyl)-1H-indol-4-yl)ethyl)-1H-benzo[d]imidazole-5-carbonitrile], the IC50 falls from 4870 nM to 680 nM (7.2-fold). The second is the more potent here.

`[2H]C([2H])([2H])Oc1cc(C)c2[nH]ccc2c1Cc1nc2cc(C#N)ccc2[nH]1` [Example 20-D] and `COc1cc(C)c2[nH]ccc2c1Cc1nc2cc(C#N)ccc2[nH]1` [Example 20-C, 2-((5-Methoxy-7-methyl-1H-indol-4-yl)methyl)-1H-benzo[d]imidazole-5-carbonitrile] are within 1.5-fold of each other in IC50: 80 nM for the first, 60 nM for the second.

First: COC(C)(c1nc2cc(C#N)ccc2[nH]1)c1c(C)cc(C)c2[nH]ccc12 (single isomer, unassigned; (+)) [84-B b) (+), (+)-2-(1-(5,7-dimethyl-1H-indol-4-yl)-1-methoxyethyl)-1H-benzo[d]imidazole-5-carbonitrile]
Second: Cc1cc(S(C)(=O)=O)c(C(N)(c2nc3cc(C#N)ccc3[nH]2)C(F)(F)F)c2cc[nH]c12 (single isomer, unassigned; (+)) [17-B b) (+), (+)-2-(1-amino-2,2,2-trifluoro-1-(7-methyl-5-(methylsulfonyl)-1H-indol-4-yl)ethyl)-1H-benzo[d]imidazole-5-carbonitrile]
The IC50 of the first is 9.7-fold lower: 710 nM for the first, 6860 nM for the second.

Work on `Cc1cc(C)c2[nH]cc(-c3cccnc3)c2c1C(O)c1nc2cc(C#N)ccc2[nH]1` (single isomer, unassigned) [120 b) (tr = 3.20 min), (−) or (+)-2-((5,7-dimethyl-3-(pyridin-3-yl)-1H-indol-4-yl)(hydroxy)methyl)-1H-benzo[d]imidazole-5-carbonitrile] yielded an IC50 of 29000 nM.
